What all share (type): cell-based
One test deals with Calu-1 (lung). The test is described as follows: CellTiterGlo Cell Proliferation Assay (2D), Calu-1. The settings on record: Homo sapiens, 96 hours. The protocol:
(§1) The purpose of this assay is to evaluate the growth of KRas G12C mutant tumor lines following treatment with a test compound. A panel of tumor cell lines harboring KRas G12C or other KRas mutations are collected (Table 25). All cell lines are from ATCC or other sources indicated.
(§2) Typically cells are cultured in RPMI1640 or Dulbecco's modified Eagle's medium (DMEM, GIBCO) supplemented with 10% FBS (GIBCO, Invitrogen). […] The cells are treated with compound for 96 hours, and then are analyzed for viability using the CellTiterGlo® Luminescent Cell Viability Assay® (Promega #G7572 for 2D) according to manufacturer's instructions and an EnVision™ plate reader. Nonlinear regression and sigmoidal dose-response curves are used to calculate the half maximal inhibitory concentration (IC50) with GraphPad Prism 4® software.

For another test, the system named is MiaPaca-2 (pancr). Briefly: CellTiterGlo Cell Proliferation Assay (2D), MiaPaca-2. The settings on record: Homo sapiens, MIA PaCa-2, 96 hours. The protocol:
as §1, §2
For orientation: In ATP-based viability assays light output follows the ATP content of the culture.

The test system of a further test is UM-UC-3 (bladder). The test is described as follows: CellTiterGlo Cell Proliferation Assay (2D), UM-UC-3. The settings on record: Homo sapiens, UMUC3, 96 hours. The protocol:
as §1, §2

In a further test the test system is H2122 (lung). The test is described as follows: CellTiterGlo Cell Proliferation Assay (2D), H2122. The settings on record: Homo sapiens, NCI-H2122, 96 hours. The procedure:
as §1, §2

A further test concerns H2030 (lung). Briefly: CellTiterGlo Cell Proliferation Assay (2D), H2030. As to conditions: Homo sapiens, NCI-H2030, 96 hours. The protocol:
as §1, §2

For the next test, the system named is HCC44 (lung). Briefly: CellTiterGlo Cell Proliferation Assay (2D), HCC44. As to conditions: Homo sapiens, 96 hours. The procedure:
as §1, §2

The subject of a further test is H358 (lung). The test is described as follows: CellTiterGlo Cell Proliferation Assay (2D), H358. The settings on record: Homo sapiens, NCI-H358, 96 hours. The protocol: as §1, §2
Another test deals with H1792 (lung). The test is described as follows: CellTiterGlo Cell Proliferation Assay (2D), H1792. The settings on record: Homo sapiens, NCI-H1792, 96 hours. The protocol: as §1, §2
A further test concerns SW1463 (colon). The test is described as follows: CellTiterGlo Cell Proliferation Assay (2D), SW1463. As to conditions: Homo sapiens, 96 hours. The procedure: as §1, §2

The structures appear in SMILES notation.

As a reminder, the IC50 is the point on the concentration scale where inhibition reaches its midpoint. Read a low IC50 as greater potency. By inhibition is commonly meant the relative decrease from the control value, in per cent. Low readings indicate little suppression, high ones strong suppression.

As to `C=CC(=O)N1CCN2C(=O)c3cc(Cl)c(-c4ccc(F)c5sc(N)nc45)c(Cl)c3OCC[C@H]2C1` (atropisomer, axis not shown) [Example 1, (13aS)-9-(2-Amino-7-fluoro-1,3-benzothiazol-4-yl)-8,10-dichloro-2-prop-2-enoyl-1,3,4,12,13,13a-hexahydropyrazino[2,1-d][1,5]benzoxazocin-6-one], the IC50 was > 10000 nM in the test with Calu-1 (lung); 18 nM with MiaPaca-2 (pancr); 730 nM with UM-UC-3 (bladder); 1170 nM in the test on H2122 (lung); > 10000 nM in the test on H2030 (lung); > 10000 nM in the test on HCC44 (lung). Further, the concentration for half-maximal inhibition (IC50) was 4 nM in the test with H358 (lung), 3010 nM in the test on H1792 (lung) and 6 nM in the test with SW1463 (colon). The inhibition at 10 µM in the test on Calu-1 (lung) (10 μM) turned out to be 45.4%; with MiaPaca-2 (pancr) (10 μM) it was 77.2%; in the test with UM-UC-3 (bladder) (10 μM) it was 54.3%; with H2122 (lung) (10 μM) it was 80.4%; with H2030 (lung) (10 μM), 32.9%; with HCC44 (lung) (10 μM) it was 46.4%. For the same compound, the values for the inhibition at 10 µM in the test on H358 (lung) (10 μM), in the test on H1792 (lung) (10 μM) and with SW1463 (colon) (10 μM) were 94.5%, 63.6% and 95.3%, respectively.

The record behind these values is patent publication US20230339968A1, “KRAS Gl2C INHIBITORS” (Eli Lilly and Company, priority 2019, published 2023).
